The source of these data is patent publication US20080221086A1, “Novel Inhibitors of Glutaminyl Cyclase” (PROBIODRUG AG, priority 2006, published 2008).

pIC50: −log10 of the molar value. Like-named read-outs stand apart in the source and are kept apart here.

Series [1] addresses hQC (Homo sapiens, UniProt Q16769). The series can be described thus: Fluorometric assay of glutaminyl cyclase (QC) inhibition, H-Gln-βNA or H-Gln-AMC substrate. The format is biochemical. An outline of the steps:
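Ki values were obtained by fitting progress curves to a competitive-inhibition equation, and the rapid screen used 4 mM inhibitor with substrate at 1 KM. Both readouts coupled pyroglutamyl aminopeptidase at pH 8.0 and 30° C: H-Gln-βNA at 0.2 mM (ex/em 320/410 nm) or H-Gln-AMC (380/460 nm).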

Setting [2] is: compound from preparative synthesis, purified by chromatography, fluorescent assay, read-out: IC50 hQC.

Chain of hQC (Q16769 29-361): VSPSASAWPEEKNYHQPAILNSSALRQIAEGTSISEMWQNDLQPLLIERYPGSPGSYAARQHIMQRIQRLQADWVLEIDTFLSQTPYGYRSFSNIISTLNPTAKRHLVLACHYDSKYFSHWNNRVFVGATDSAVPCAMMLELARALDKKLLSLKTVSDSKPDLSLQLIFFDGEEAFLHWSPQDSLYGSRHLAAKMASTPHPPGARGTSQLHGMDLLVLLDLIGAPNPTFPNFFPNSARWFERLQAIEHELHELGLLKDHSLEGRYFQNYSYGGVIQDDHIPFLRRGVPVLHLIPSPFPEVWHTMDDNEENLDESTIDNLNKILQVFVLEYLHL

Take `O=C1N/C(=N/Cc2ccccc2)C(c2ccc(Br)cc2)N1c1ccc2[nH]cnc2c1` (stereo not drawn) [Compound 216, 1-(1H-Benzoimidazol-5-yl)-4-benzylimino-5-(4-bromo-phenyl)-imidazolidin-2-one]: the melting point (in general, the temperature, or range, at which the solid turns liquid) was 244 °C. In addition, the pIC50 – broadly, the IC50 on a negative log10 scale, so that one unit is a factor of ten – in series [1] (setting [2]) was 7.66. In addition, in series [1] (read-out: IC50), the pIC50 was 8.40.

`O=C1N/C(=N\C2CCCC2)C(c2ccc3[nH]ccc3c2)N1c1ccc2[nH]cnc2c1` (stereo not drawn) [Compound 226, 1-(1H-Benzoimidazol-5-yl)-4-(cyclopentylimino)-5-(1H-indol-5-yl)-imidazolidin-2-one] showed a melting point of 210 °C. In addition, the pIC50 in series [1] (setting [2]) was 7.46. For the same molecule, the pIC50 in series [1] (read-out: IC50) is 8.40.
